Key:
Format in all cases: cell-free
[1] = target: T1, Inhibitor of nuclear factor kappa-B kinase subunit beta (Homo sapiens) (UniProt O14920); test: Inhibition of human IKK-beta in HL-60 cells lysate assessed as reduction of labelling of acyl-phosphate ATP probe at 100 nM
T1 sequence (whole entry): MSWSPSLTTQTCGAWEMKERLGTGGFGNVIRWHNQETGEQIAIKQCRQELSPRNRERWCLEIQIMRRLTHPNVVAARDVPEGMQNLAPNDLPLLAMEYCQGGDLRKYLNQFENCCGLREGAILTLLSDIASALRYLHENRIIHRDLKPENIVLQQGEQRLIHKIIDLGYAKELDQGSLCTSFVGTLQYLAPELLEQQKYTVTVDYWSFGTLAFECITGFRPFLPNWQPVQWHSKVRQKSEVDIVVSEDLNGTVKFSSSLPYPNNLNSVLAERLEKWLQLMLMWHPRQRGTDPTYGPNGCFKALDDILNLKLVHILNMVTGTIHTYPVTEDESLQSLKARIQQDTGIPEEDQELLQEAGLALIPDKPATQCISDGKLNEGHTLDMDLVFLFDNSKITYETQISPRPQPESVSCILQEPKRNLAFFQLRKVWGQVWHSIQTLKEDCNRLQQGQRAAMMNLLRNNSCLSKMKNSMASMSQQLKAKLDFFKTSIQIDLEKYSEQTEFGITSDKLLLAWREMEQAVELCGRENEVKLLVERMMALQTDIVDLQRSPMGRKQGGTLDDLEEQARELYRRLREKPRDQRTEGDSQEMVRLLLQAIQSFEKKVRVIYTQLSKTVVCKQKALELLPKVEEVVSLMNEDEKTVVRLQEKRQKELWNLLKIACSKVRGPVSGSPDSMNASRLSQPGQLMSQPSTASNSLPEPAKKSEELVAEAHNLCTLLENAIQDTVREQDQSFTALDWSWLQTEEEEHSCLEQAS

[2] = target: T2, Eukaryotic translation initiation factor 2-alpha kinase 3 (Homo sapiens) (UniProt Q9NZJ5); test: Inhibition of human PEK in HL-60 cells lysate assessed as reduction of labeling of acyl-phosphate ATP probe at 100 nM
T2 sequence (whole entry): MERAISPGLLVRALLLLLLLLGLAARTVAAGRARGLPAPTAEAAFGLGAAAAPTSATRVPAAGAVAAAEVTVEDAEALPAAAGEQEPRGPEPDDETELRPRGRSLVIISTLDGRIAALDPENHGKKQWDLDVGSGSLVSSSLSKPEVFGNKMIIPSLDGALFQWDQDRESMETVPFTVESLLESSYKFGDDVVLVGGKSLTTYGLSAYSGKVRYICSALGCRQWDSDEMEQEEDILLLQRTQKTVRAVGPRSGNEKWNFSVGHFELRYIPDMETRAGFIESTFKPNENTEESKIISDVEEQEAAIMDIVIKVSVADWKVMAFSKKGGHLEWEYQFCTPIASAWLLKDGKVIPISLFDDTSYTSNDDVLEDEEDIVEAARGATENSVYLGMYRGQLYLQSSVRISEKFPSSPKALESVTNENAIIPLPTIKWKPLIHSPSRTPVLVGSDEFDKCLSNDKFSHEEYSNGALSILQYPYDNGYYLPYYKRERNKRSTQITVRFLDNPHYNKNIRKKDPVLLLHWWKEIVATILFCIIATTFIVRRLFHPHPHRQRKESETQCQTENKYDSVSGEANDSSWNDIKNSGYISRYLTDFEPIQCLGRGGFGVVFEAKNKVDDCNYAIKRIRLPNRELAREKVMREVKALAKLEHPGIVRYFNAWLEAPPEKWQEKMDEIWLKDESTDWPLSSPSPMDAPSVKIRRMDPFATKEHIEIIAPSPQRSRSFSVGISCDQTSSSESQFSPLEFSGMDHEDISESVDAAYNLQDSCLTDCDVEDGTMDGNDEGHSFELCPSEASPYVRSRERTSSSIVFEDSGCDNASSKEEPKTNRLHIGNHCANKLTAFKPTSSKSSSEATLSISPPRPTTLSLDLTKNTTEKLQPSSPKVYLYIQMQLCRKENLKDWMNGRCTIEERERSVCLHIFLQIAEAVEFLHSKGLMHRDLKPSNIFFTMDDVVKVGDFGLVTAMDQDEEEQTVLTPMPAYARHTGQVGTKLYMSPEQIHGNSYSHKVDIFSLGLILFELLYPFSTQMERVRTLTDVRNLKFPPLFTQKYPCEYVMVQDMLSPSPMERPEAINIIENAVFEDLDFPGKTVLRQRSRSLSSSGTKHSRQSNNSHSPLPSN

[3] = target: T3, Serine/threonine-protein kinase ULK3 (Homo sapiens) (UniProt Q6PHR2); test: Inhibition of human ULK3 in HL-60 cells lysate assessed as reduction of labeling of acyl-phosphate ATP probe at 100 nM
T3 sequence (whole entry): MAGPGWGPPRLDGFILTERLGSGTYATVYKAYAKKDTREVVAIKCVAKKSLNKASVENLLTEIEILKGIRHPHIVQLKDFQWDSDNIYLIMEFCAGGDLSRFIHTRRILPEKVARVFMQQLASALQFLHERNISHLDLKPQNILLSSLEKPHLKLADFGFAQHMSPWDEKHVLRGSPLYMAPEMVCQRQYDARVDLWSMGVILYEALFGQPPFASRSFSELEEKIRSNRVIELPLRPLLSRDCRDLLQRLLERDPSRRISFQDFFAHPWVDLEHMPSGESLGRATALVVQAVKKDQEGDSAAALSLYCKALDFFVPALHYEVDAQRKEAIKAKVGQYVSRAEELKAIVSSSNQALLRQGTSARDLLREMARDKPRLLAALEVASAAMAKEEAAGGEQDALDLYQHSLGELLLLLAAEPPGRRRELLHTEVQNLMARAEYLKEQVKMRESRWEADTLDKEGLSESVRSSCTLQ

inhibition [1]	inhibition [2]	inhibition [3]	SMILES
< 35%	< 35%	< 35%	C[C@H]1COc2c(NCCCc3ccccn3)c(F)c(N)c3c(=O)c(C#N)cn1c23
< 35%	< 35%	< 35%	C[C@H]1COc2c(NCCCn3cccn3)c(F)c(N)c3c(=O)c(C(=O)O)cn1c23
< 35%	< 35%	< 35%	C[C@H]1COc2c(NCCCn3cccn3)c(F)c(N)c3c(=O)c(C#N)cn1c23
< 35%	< 35%	< 35%	C[C@H]1COc2c(NCCCc3ccccn3)c(F)c(N)c3c(=O)c(C(=O)O)cn1c23

Source: ChEMBL document CHEMBL1938230, “6-Position optimization of tricyclic 4-quinolone-based inhibitors of glycogen synthase kinase-3β: discovery of nitrile derivatives with picomolar potency” (Bioorg Med Chem Lett, 2012)
